Data reported in paper PMC6550521, “Stress-Induced Changes in the Lipid Microenvironment of β-(1,3)-D-Glucan Synthase Cause Clinically Important Echinocandin Resistance in Aspergillus fumigatus” (mBio, 2019).

Legend:
[1] = target: β-(1,3)-D-glucan synthase of clinical isolate 2770 (Aspergillus fumigatus, UniProt Q4WLT4); experiment: Glucan synthase kinetic inhibition assay, enzyme from clinical isolate 2770; format: biochemical; conditions: enzyme from isolate 2770 grown at 4 μg/ml CAS
[2] = target: β-(1,3)-D-glucan synthase of clinical isolate 117 (Aspergillus fumigatus, UniProt Q4WLT4); experiment: Glucan synthase kinetic inhibition assay, enzyme from clinical isolate 117; format: biochemical; conditions: enzyme from isolate 117 grown at 4 μg/ml CAS
[3] = system: reactive oxygen species (ROS) in A. fumigatus ATCC 13073; experiment: ROS production, DCFDA fluorescence assay; format: cell-based, Aspergillus fumigatus; conditions: 1 μg/ml, 1 h exposure, compared with other echinocandins
Description: (§1) ROS production in mycelia was measured using a protocol previously described by Blatzer et al. ([51]) with a few changes. Suspensions of 10^4 spores/ml of ATCC 13073 and RG101 were grown in static culture in complete supplement mixture (CSM) medium for 16 h in a 96-well microplate at 37°C. After incubation, the mycelia were washed once with CSM, 10 μM 2′,7′–dichlorofluorescin diacetate (DCFDA) dye was added, and cells were incubated in the dark at 37°C for 30 min. Cells were then washed three times with phosphate-buffered saline (PBS), and a final concentration of 1 μg/ml of each echinocandin in CSM medium was added to different wells. Fluorescence intensity (excitation at 485 nm and emission at 530 nm) was measured for 1 h in a microplate reader (Tecan Infinite M200 Pro). Mycelia stained with DCFDA without any drug were used as a control.

[4] = system: reactive oxygen species (ROS) in A. fumigatus RG101; experiment: ROS production, DCFDA fluorescence assay; format: cell-based, Aspergillus fumigatus; conditions: 1 μg/ml, 1 h exposure, DCFDA, compared with other echinocandins
Description: as §1

A. fumigatus RG101 = experiment: Electron microscopy (SEM, TEM) of cell wall ultrastructure; format: cell-based, Aspergillus fumigatus; conditions: CAS 4 μg/ml, 16 h, SEM and TEM
Description: (§2) Scanning electron microscopy (SEM) and transmission electron microscopy (TEM) methods were followed as described previously ([49]) and in Text S1.
(§3) For SEM, mycelia of ATCC 13073 and RG101 were grown in the absence and presence of CAS (4 µg/mL) and were fixed with 2.5% (v/v) glutaraldehyde in 0.1 M cacodylate buffer (pH 7.4) at room temperature for 3 h. After being washed with 0.1 M cacodylate buffer, specimens were post-fixed for 1 h with 1% osmium tetroxide in 0.1 M cacodylate buffer (pH 7.4) at 4 °C. Samples were dehydrated in graded ethanol, and then critical point dried in liquid carbon dioxide and sputter-coated with a thin layer of palladium–gold. Observations were carried out using Hitachi S-3400 N scanning electron microscope.
(§4) For TEM, cultures were fixed with 2.5% (v/v) glutaraldehyde solution as described above. They were then post-fixed for 1 h with 1% (w/v) osmium tetroxide in 0.1 M cacodylate buffer (pH 7.4) at 4 °C. After three wash steps in buffer, specimens were dehydrated in a series of graded ethanol and embedded in Embed 812. Thin sections were stained with uranyl acetate followed by lead nitrate and examined in a Hitachi H-7500 electron microscope operated at 100 KV.

A. fumigatus ATCC 13073 [5] = experiment: as above; format: cell-based, Aspergillus fumigatus; conditions: CAS 4 μg/ml, 16 h, SEM and TEM
Description: as §2, §3, §4

A. fumigatus ATCC 13073 [6] = experiment: Antifungal susceptibility testing (MEC, CLSI M38-A2); format: cell-based, Aspergillus fumigatus
Description: (§5) Minimum effective concentrations (MECs) for A. fumigatus strains were determined according to CLSI document M38-A2 ([48]) and defined as the lowest drug concentration that led to the growth of small, rounded, compact hyphal forms compared to the hyphal growth seen in the drug-free growth control wells. The following drugs (supplier) were tested: caspofungin (Merck & Co., Inc.), micafungin (Astellas Pharma US, Inc.), anidulafungin (Pfizer Inc.), itraconazole (Sigma-Aldrich), voriconazole (Pfizer Inc.), and amphotericin B (Sigma-Aldrich). In addition, rezafungin and ibrexafungerp were obtained from Cidara Therapeutics and Scynexis Inc., respectively.

[7] = system: A. fumigatus S679P (fks1 Ser-679-Pro mutant); experiment: as above; format: cell-based, Aspergillus fumigatus; conditions: S679P, fks1 Ser-679-Pro
Description: as §5

[8] = target: β-(1,3)-D-glucan synthase of clinical isolate 32458 (Aspergillus fumigatus, UniProt Q4WLT4); experiment: Glucan synthase kinetic inhibition assay, enzyme from clinical isolate 32458; format: biochemical; conditions: enzyme from isolate 32458 grown at 4 μg/ml CAS
[9] = system: cell wall glucan and chitin of RG101; experiment: Cell wall carbohydrate analysis (mass spectrometry, calcofluor white); format: cell-based, Aspergillus fumigatus; conditions: CAS 4 μg/ml
Description: Strains ATCC 13073 and RG101 were grown in the absence and presence of CAS (4 μg/ml) in 6-well microtiter plates containing yeast extract-peptone-dextrose (YPD) broth for 22 h at 37°C. The cells were then lysed using a French press. The broken cell wall sample was processed for chemical analysis using mass spectrometry at the Complex Carbohydrate Research Center (CCRC) at the University of Georgia, Athens, GA.

β-(1,3)-D-glucan synthase of clinical isolate 32458, sequence (Q4WLT4 1-1904): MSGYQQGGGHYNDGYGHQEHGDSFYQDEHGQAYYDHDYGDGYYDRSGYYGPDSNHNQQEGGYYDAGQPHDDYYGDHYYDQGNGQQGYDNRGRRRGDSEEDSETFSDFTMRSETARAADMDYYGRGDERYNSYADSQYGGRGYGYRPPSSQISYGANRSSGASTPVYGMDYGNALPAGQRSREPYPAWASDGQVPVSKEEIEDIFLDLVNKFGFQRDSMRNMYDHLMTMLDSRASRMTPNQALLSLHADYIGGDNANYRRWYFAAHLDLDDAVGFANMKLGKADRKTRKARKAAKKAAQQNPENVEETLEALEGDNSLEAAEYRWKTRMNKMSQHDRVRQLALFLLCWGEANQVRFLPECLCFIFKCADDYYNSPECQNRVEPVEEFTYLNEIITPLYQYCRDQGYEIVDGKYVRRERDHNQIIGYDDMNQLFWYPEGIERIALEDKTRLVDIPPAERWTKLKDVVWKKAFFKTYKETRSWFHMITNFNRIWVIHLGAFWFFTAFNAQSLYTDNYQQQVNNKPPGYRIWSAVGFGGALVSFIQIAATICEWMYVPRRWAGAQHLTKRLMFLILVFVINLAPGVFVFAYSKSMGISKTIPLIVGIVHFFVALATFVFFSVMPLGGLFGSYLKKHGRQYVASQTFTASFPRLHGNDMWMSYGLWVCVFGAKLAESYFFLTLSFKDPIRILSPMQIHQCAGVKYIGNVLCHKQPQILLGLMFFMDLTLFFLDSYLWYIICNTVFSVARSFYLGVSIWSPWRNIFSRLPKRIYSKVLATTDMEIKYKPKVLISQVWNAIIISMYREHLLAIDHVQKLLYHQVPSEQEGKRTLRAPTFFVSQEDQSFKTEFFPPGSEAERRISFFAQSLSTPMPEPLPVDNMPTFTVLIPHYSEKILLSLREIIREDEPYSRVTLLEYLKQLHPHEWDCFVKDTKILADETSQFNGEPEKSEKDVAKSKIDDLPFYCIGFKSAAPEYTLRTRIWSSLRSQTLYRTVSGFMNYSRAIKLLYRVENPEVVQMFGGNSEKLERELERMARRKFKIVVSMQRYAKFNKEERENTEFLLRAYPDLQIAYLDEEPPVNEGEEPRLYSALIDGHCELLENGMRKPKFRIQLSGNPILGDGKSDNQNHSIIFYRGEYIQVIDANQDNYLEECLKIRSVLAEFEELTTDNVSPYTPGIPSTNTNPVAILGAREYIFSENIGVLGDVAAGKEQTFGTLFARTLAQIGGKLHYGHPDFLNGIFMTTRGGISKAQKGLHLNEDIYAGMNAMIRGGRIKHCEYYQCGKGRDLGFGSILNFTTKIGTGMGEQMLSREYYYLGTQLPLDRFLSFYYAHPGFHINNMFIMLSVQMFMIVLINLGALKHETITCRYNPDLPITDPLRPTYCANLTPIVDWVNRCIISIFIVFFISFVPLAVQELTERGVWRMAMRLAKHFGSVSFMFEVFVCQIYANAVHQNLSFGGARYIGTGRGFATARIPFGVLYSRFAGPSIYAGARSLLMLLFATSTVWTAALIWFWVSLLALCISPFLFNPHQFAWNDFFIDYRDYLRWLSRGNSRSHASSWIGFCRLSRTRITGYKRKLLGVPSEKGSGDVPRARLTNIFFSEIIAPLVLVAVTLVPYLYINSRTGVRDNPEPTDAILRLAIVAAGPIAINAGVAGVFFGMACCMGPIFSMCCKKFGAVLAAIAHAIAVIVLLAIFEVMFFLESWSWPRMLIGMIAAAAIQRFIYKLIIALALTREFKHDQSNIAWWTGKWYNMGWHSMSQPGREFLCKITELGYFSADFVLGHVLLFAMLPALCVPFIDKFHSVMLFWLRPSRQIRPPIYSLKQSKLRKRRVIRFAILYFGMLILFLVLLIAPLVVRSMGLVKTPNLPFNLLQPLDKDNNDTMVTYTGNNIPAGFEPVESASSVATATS
β-(1,3)-D-glucan synthase of clinical isolate 2770, sequence (Q4WLT4 1-1904): as above

Structure (SMILES): CC[C@H](C)C[C@H](C)CCCCCCCCC(=O)N[C@H]1C[C@@H](O)[C@@H](NCCN)NC(=O)[C@@H]2[C@@H](O)CCN2C(=O)[C@H]([C@H](O)CCN)NC(=O)[C@H]([C@H](O)[C@@H](O)c2ccc(O)cc2)NC(=O)[C@@H]2C[C@@H](O)CN2C(=O)[C@H]([C@@H](C)O)NC1=O [CAS, caspofungin]
- IC50 [1]: > 9.15 µM
- IC50 [2]: > 9.15 µM
- ROS levels induced in ATCC 13073 [3]: highest levels
- ROS levels induced in RG101 [4]: highest levels
- Cell wall ultrastructure of RG101 grown in the presence of CAS (A. fumigatus RG101): did not show any ultrastructural cell wall damage
- Cell wall ultrastructure of ATCC 13073 grown in the presence of CAS (A. fumigatus ATCC 13073 [5]): extensive damage
- Drug susceptibility testing result, ATCC 13073 (A. fumigatus ATCC 13073 [6]; 24 h, Fig 1B): 0.12 µg/mL
- MEC (minimum effective concentration) (A. fumigatus ATCC 13073 [6]; ATCC 13073, fks1 WT): 0.12 µg/mL
- MEC (minimum effective concentration) [7]: 16 µg/mL
- IC50 [8]: ~4.57 µM
- Chitin levels in RG101 upon CAS exposure ([9]; MS and calcofluor white): no significant increase
- Cell wall glucan content in RG101 treated with CAS ([9]; mass spectroscopy): no reduction
